Converted amounts (≈) assume the structure as drawn. Where two headings read alike, the source gives them in different places.
Legend:
M. tuberculosis H37Rv [1] = experiment: MIC, microplate-based Alamar Blue assay; type: cell-based, Mycobacterium tuberculosis
[2] = Kinetic aqueous solubility; type: physicochemical; conditions: universal aqueous buffer, pH 7.4
[3] = Mouse liver microsomal stability; type: in vitro ADME; conditions: liver microsomes, pH 7.4
[4] = tested on: 100 day-old cultures of M. tuberculosis H37Rv; type: cell-based, Mycobacterium tuberculosis
[5] = tested on: FAS-II pathway in M. tuberculosis H37Rv; type: cell-based, Mycobacterium tuberculosis
[6] = for T>MIC: single 25 mg/kg po dose
in vivo = conditions: female, mouse; for Vd / clearance / half-life: iv, 5 mg/kg
[7] = Chemical stability, degradation to aminotriazine; conditions: C-N bond cleavage to aminotriazine JSF-3226, light-dependent
[8] = tested on: M. tuberculosis strain fgd1∷tn; experiment: MIC versus F420H2 deficient strain fgd1∷tn; type: cell-based, Mycobacterium tuberculosis
M. tuberculosis = experiment: Minimum bactericidal concentration; type: cell-based, Mycobacterium tuberculosis
M. tuberculosis H37Rv [9] = experiment: Griess assay for NO• quantification, H37Rv; type: cell-based, Mycobacterium tuberculosis; conditions: 20 μM compound, 5 d exposure, lower limit of quantification 0.80 μM NO2−
M. tuberculosis fgd1∷tn = experiment: Griess assay for NO• quantification, fgd1∷tn; type: cell-based, Mycobacterium tuberculosis; conditions: 20 μM compound, lower limit of quantification 0.80 μM NO2−
purified InhA = purified InhA (Mycobacterium tuberculosis, UniProt P9WGR1); experiment: biochemical; set-up: species or system M. tuberculosis
Sequence of purified InhA (P9WGR1 whole entry, looked up): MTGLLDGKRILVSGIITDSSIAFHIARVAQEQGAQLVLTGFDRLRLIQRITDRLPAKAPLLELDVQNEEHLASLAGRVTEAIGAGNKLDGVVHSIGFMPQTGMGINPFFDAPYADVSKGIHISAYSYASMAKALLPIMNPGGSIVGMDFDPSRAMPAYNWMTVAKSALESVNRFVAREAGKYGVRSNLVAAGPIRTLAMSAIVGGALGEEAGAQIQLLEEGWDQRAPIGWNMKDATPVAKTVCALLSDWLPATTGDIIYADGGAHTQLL

M. tuberculosis H37Rv [10] = conditions: cited from earlier work
[11] = ref Inoyama et al., 2018; cited from earlier work
Mouse plasma stability = type: in vitro ADME; conditions: after 5 h incubation
E. faecium = experiment: MIC versus ESKAPE bacteria: E. faecium; type: cell-based; conditions: Enterococcus faecium
P aeruginosa = experiment: MIC versus ESKAPE bacteria: P aeruginosa; type: cell-based
E. cloacae = experiment: MIC versus ESKAPE bacteria: E. cloacae; type: cell-based; conditions: Enterobacter cloacae
[12] = Human liver microsomal stability; type: in vitro ADME; conditions: liver microsomes, pH 7.4
[13] = tested on: human cytochrome P450 isoforms; type: in vitro ADME
M. tuberculosis H37Rv [14] = type: in vivo; conditions: 60 and 200 mg/kg oral daily, after 4 weeks of dosing, Balb/c mice
[15] = Vero cell-based cytotoxicity; conditions: African green monkey, Vero cells
[16] = Dose proportionality and tolerability in mice; conditions: single dose 300 mg/kg
[17] = Mycobacterium tuberculosis, H37RV

SMILES | MIC (M. tuberculosis H37Rv [1]; [17]) [µM] | solubility at 4 h [2] [µM] | half-life [3] [min] | reduction in colony-forming units (CFUs) [4] | FAMEs and MAMEs profile by TLC [5] | T>MIC ([6]; mouse) [h] | Kp at 5 h (in vivo; 25 mg/kg) | Vd (in vivo) [L/kg] | clearance (in vivo) [mL/min/kg] | half-life (in vivo) [min] | AUC(0-t) (in vivo; po, 25 mg/kg) [ng·h/mL] | Cmax (in vivo; po, 25 mg/kg) [ng/mL] | bioavailability (in vivo; po, 25 mg/kg) [%] | further results
O=[N+]([O-])c1ccc(/C=N/Nc2nc(N3CCOCC3)nc(N3CCOCC3)n2)o1 [JSF-2189, (E)-4,4'-(6-(2-((5-nitrofuran-2-yl)methylene)hydrazineyl)-1,3,5-triazine-2,4-diyl)dimorpholine] | 7.8 (≈ 3.15 µg/mL) | 20.2 (≈ 8.17 µg/mL) | 68 |  |  |  |  |  |  |  |  |  |  | 
O=[N+]([O-])c1cn2c(n1)OC[C@@H](OCc1ccc(OC(F)(F)F)cc1)C2 [Pretomanid, reference compound] | 0.039 (≈ 0.014 µg/mL) |  |  | 6 log10 | decrease of MAMEs |  |  |  |  |  |  |  |  | MIC (M. tuberculosis H37Rv [1]; H37Rv): 0.078 µM (≈ 0.028 µg/mL)
CC1(Nc2nc(N/N=C/c3ccc([N+](=O)[O-])o3)nc(N3CCOCC3)n2)CC1 [JSF-2625, (E)-N-(1-methylcyclopropyl)-4-morpholino-6-(2-((5-nitrofuran-2-yl)methylene)hydrazineyl)-1,3,5-triazin-2-amine] | 0.25 (≈ 0.0971 µg/mL) | 8.71 (≈ 3.38 µg/mL) | 56.4 |  |  | 1 to 3 | 0.3 | 1.44 | 88 | 11.4 | 538 | 266 | 11.4 | stability in mouse plasma, aqueous DMSO, or aqueous CH3CN [7]: found to degrade
O=[N+]([O-])c1ccc(/C=N/Nc2nc(Nc3ccccc3)nc(Nc3ccccc3)n2)o1 [JSF-2019, (E)-6-(2-((5-nitrofuran-2-yl)methylene)hydrazinyl)-N2,N4-diphenyl-1,3,5-triazine-2,4-diamine] | 0.078 (≈ 0.0325 µg/mL) |  | 63.6 | ~4 log10 |  | 5.0 | 2.6 |  |  |  | 1150 | 317 |  | MIC shift / loss of susceptibility, fgd1∷tn versus H37Rv [8]: 17 fold; MBC (lowest concentration to reduce the bacterial population by 2 log10) (M. tuberculosis): 600 – 1200 nM; NO• release quantified as nitrite (M. tuberculosis H37Rv [9]): smaller yet quantifiable NO• release compared to pretomanid; NO• release quantified as nitrite (M. tuberculosis fgd1∷tn): not discernible; IC50 (purified InhA; InhA IC50, in the presence of 1% CMC Tween-20): 24 ± 3.6 µM; IC50 (purified InhA; InhA IC50, without added detergent, substrate 2-dodecenoyl-CoA, NADH): 20 ± 2.4 µM; FAMEs and MAMEs profile by TLC ([5]; […], INH and pretomanid at 10x MIC, JSF-2019 and JSF-2513 1 – 40x MIC): accumulation of FAMEs and decrease of MAMEs; MIC (minimum concentration to inhibit 90% of bacterial growth) (M. tuberculosis H37Rv [10]; ref Ekins et al., 2013): 0.15 µM; AUC (in vivo; po, 25 mg/kg): 1150 ng·h/mL; aqueous solubility S [11]: < 0.060 µM
NNC(=O)c1ccncc1 [INH, reference compound] | 0.16 (≈ 0.0219 µg/mL) |  |  |  | reduction of mycolic acids |  |  |  |  |  |  |  |  | 
FC(F)(F)Oc1ccc(CO[C@@H]2COc3nccn3C2)cc1 [des-nitro pretomanid, reference compound] |  |  |  |  |  |  |  |  |  |  |  |  |  | whole-cell efficacy (M. tuberculosis H37Rv [10]; ref Singh et al., 2008): lack quantifiable whole-cell efficacy
O=[N+]([O-])c1ccc(/C=N/Nc2nc(N3CCC3)nc(N3CCOCC3)n2)o1 [JSF-2619, (E)-4-(4-(azetidin-1-yl)-6-(2-((5-nitrofuran-2-yl)methylene)hydrazineyl)-1,3,5-triazin-2-yl)morpholine] |  |  |  |  |  | 3 to 5 | 0.23 | 1.91 | 61.7 | 21.6 | 7640 | 4200 | 49.2 | stability in mouse plasma, compound remaining (Mouse plasma stability): satisfactory stabilities in mouse plasma
O=[N+]([O-])c1ccc(/C=N/Nc2nc(Nc3ccccc3)nc(N3CCOCC3)n2)o1 [JSF-2513, (E)-4-morpholino-6-(2-((5-nitrofuran-2-yl)methylene)hydrazineyl)-N-phenyl-1,3,5-triazin-2-amine] | 0.63 (≈ 0.259 µg/mL) | 0.853 (≈ 0.35 µg/mL) |  | ca. 7 log10 | depletion of MAMEs and accumulation of precursor FAMEs | 8 to 24 |  | 1.38 | 37.2 | 25.8 | 12000 | 1710 | ≥ 99 | MIC (E. faecium): 15 µM (≈ 6.16 µg/mL); MIC (P aeruginosa): > 120 µM; MIC (E. cloacae): > 120 µM; NO• release quantified as nitrite (M. tuberculosis H37Rv [9]): in a lesser amount than JSF-2019; NO• release quantified as nitrite (M. tuberculosis fgd1∷tn): abolished; half-life [12]: 61.7 min; microsomal CLint [12]: 11.2 µL/min/mg; stability in mouse plasma, compound remaining (Mouse plasma stability): satisfactory stabilities in mouse plasma; inhibition of human cytochrome P450 isoforms [13]: did not significantly inhibit; M. tuberculosis CFUs in mouse lungs and spleen versus vehicle (M. tuberculosis H37Rv [14]): failed to demonstrate a reduction in M. tuberculosis CFUs; IC50 (purified InhA; InhA IC50): > 150 µM; level in the mouse lungs ([6]; 5 h post a single 25 mg/kg dose, limit of quantification 25 ng/mL): near the limit of quantification; Clung/Cplasma at 5 h ([6]; mouse): BLQ; CC50 [15]: 3.9 µM; tolerability in mice [16]: lethargy

From paper PMC7035970 (Cell chemical biology, 2019)
